{"source": "patent US11529367B2", "about": "“Radiation damage protective agent” (MiZ Company Limited, priority 2016, dated 2022)", "tested_on": "cancer patients subjected to IMRT irradiation (bone marrow damage by radiation)", "conditions": "mean±SE, n=16, before treatment taken as 1", "experimental": "These patients were subjected to IMRT irradiation integrated with a computed tomograph (CT). Irradiation was in principle performed on a schedule of once a day, five times per week, and this schedule was repeated. Radiation was applied at 1 to 5 locations for 5 to 20 minutes once, and the number of times irradiation was performed was 5 to 20.\nThese patients were housed in a hyperbaric capsule (APF 2, 700×1900 mm; oxygen concentration: 28% by volume; Air Press Co., Ltd.) at 1.35 atm for 30 minutes after each irradiation with radiation to alleviate the adverse effects.\nIn addition, 16 patients (8 males and 8 females) who had visited from April 2016 until November 2016 were included in the hydrogen group. These patients were housed in the capsule similar to the above-mentioned capsule except that a hydrogen gas inhaler (MHG-44280, MiZ Company Limited), which generates approximately 6.5% by volume of hydrogen gas (4 L/min) by electrolysis of water, was connected in series with and upstream the air intake of the pressurizing device for the hyperbaric capsule provided outside the capsule, so as to feed high-pressure air containing hydrogen gas into the capsule, while the patients were allowed to inhale, via the nasal cannula, for 30 minutes, 4% by volume to 6% by volume of hydrogen gas (4 L/min) carried through a Y-shaped tube by which the air outlets of two hydrogen gas inhalers (MHG-2070 and MHG-2140, MiZ Company Limited) provided in the capsule were connected in parallel. The hydrogen gas concentration in the ceiling portion of the capsule was approximately 0.2% by volume.\nBlood samples were taken periodically from both groups of patients before, during and after radiation treatment. The analysis items of blood were the white blood cell count (WBC), red blood cell count (RBC), hemoglobin level (Hb), hematocrit level (Ht) and platelet count (PLT), and these were used as indicators for hematopoietic function.", "key": {"[1]": {"conditions": "4-6% by volume hydrogen gas inhaled 30 min in hyperbaric capsule at 1.35 atm, no significant difference vs control"}}, "data": [{"compound": "[HH]", "note": "[H2, hydrogen gas]", "values": [{"measurement": "WBC ratio: relative value of the white blood cell count (WBC) immediately after radiation treatment to the WBC before radiation treatment", "setting": "4-6% by volume hydrogen gas inhaled 30 min in hyperbaric capsule at 1.35 atm after each irradiation, p<0.01 vs control", "result": "0.612±0.088"}, {"measurement": "Hb ratio: relative value of the hemoglobin level (Hb) immediately after radiation treatment to the Hb before radiation treatment", "setting": "[1]", "result": "0.966±0.029"}, {"measurement": "Ht ratio: relative value of the hematocrit level (Ht) immediately after radiation treatment to the Ht before radiation treatment", "setting": "[1]", "result": "0.953±0.027"}, {"measurement": "RBC ratio: relative value of the red blood cell count (RBC) immediately after radiation treatment to the RBC before radiation treatment", "setting": "[1]", "result": "0.985±0.027"}, {"measurement": "PLT ratio: relative value of the platelet count (PLT) immediately after radiation treatment to the PLT before radiation treatment", "setting": "4-6% by volume hydrogen gas inhaled 30 min in hyperbaric capsule at 1.35 atm, p<0.05 vs control", "result": "0.752±0.130"}]}]}
